Reference: patent publication US7105663B2, “Derivatives of pyrimido[6,1-a]isoquinolin-4-one” (Rhinopharma Limited, priority 1999, dated 2006)

Columns and labels:
[1] = system: LPS induced TNF-α release from human monocytes; assay: LPS induced TNF-α release from human monocytes; format: cell-based; details: Monocyte
PDE4 (human neutrophil) = assay: Inhibition of phosphodiesterase (PDE) type 4 isoenzyme; format: biochemical
[2] = system: guinea-pig isolated trachea; assay: Electrical-induced contraction of guinea-pig isolated trachea (superfused tracheal rings, electrical field stimulation); details: 10 μM
Protocol: Superfusion of guinea-pig tracheal rings was performed according to a previously described method (Coleman et al. 1996; Pulmonary Pharmacology, 9, 107–117). Briefly, guinea-pig tracheal preparations were cut into rings then opened by sectioning the ring opposite the smooth muscle and suspended between two platinum electrodes under 1 g tension. The tissues were superfased at a rate of 3.25 ml/min with Krebs-Henseleit solution at 37° C. containing the cyclooxygenase inhibitor, indomethacin (5 μM) and bubbled with 95% O2 and 5% CO2. Tracheal preparations were allowed to equilibrate for 40 min before commencement of electrical stimulation delivered as a 10 s train of square wave pulses at 3 Hz, 0.1 ms duration and 20V (approx. 400 mAmps) generated every 100 sec by means of physiological square wave-stimulator.
The compound of Example 1 was dissolved in DMSO containing Tween 80 (10%) and distilled water (0.01 M), which were then added to the organ bath to give a final concentration of 10 μM. The other compounds were prepared in DMSO and diluted in Krebs-Henseleit solution which yielded a final superfusion concentration of 0.05% DMSO, and superfused at a rate of 0.3 ml/min; contractile responses to electrical field stimulation was recorded on a Macintosh computer using MacLab software.

[3] = system: recruitment of eosinophils to the lungs; assay: Antigen induced eosinophilia in the ovalbumin sensitised guinea-pig; format: in vivo
Protocol: 3. […] Further experiments were carried out to characterise the duration of action in this model.

PDE3 (human platelet) = target: T1, PDE3 (human platelet) (Homo sapiens, UniProt Q14432); assay: Inhibition of phosphodiesterase (PDE) type 3 isoenzyme; format: biochemical
T1 construct: (human platelet); from tissue; host or cells: human platelets

[4] = Intravenous administration to urethane anaesthetised guinea-pigs, mean arterial blood pressure; format: in vivo, guinea-pig; details: intravenous 1 to 100 μg/kg, evidence that the compound had come out of solution
Protocol: 2. […] The compound was dissolved in DMSO then diluted with saline (there was evidence that the compound had come out of solution).

[5] = system: human mononuclear cells stimulated by PHA; assay: Proliferation of human mononuclear cells stimulated by PHA ([3H]-thymidine); format: cell-based
Protocol: Normal healthy volunteers underwent phlebotomy and 25 ml of blood was collected. Mononuclear cells were separated and purified according to the method of Banner et al (Banner et al Br. J. Pharmacol. 116 3169–3174 (1995)). Human peripheral mononuclear cells (100,000 per well) were stimulated for 24 h with phytohaemagglutinin (PHA, 2 μ/ml) in the absence or presence of the compound of Example 1 (0.001–100 μM) at 37° C. in a 95% air, 5% CO2 atmosphere. Twenty four hours later, [3H]-thymidine (0.1 μCi) was added to each well and the cells were incubated for a further 24 h period. Cells were then harvested onto glass fibre filters using a cell harvester (ICN Flow, Buckinghamshire) and counted in a scintillation counter.

[6] = system: histamine induced bronchospasm; assay: Histamine induced bronchospasm in guinea-pigs after dry powder exposure; format: in vivo, guinea-pig; details: dry powder 2.5 and 25% in lactose, over a 5.5 hour period
Protocol: 1. The compound of Example 1, 9,10-Dimethoxy-2-(2,4,6-trimethylphenylimino)-3-(N-carbamoyl-2-aminoethyl)-3,4,6,7-tetrahydro-2H-pyrimido[6,1-a]isoquinolin-4-one, was tested in a model of histamine induced bronchospasm. Conscious guinea-pigs were exposed to dry powder (micronised) compound. The drug was blended with lactose so that the final concentration was 0.25, 2.5 and 25%. At various times after exposure to drug the animals were anaesthetised and challenged with varying doses of histamine. Total airway resistance and mean arterial blood pressure were recorded.

T1 sequence (Q14432 whole entry): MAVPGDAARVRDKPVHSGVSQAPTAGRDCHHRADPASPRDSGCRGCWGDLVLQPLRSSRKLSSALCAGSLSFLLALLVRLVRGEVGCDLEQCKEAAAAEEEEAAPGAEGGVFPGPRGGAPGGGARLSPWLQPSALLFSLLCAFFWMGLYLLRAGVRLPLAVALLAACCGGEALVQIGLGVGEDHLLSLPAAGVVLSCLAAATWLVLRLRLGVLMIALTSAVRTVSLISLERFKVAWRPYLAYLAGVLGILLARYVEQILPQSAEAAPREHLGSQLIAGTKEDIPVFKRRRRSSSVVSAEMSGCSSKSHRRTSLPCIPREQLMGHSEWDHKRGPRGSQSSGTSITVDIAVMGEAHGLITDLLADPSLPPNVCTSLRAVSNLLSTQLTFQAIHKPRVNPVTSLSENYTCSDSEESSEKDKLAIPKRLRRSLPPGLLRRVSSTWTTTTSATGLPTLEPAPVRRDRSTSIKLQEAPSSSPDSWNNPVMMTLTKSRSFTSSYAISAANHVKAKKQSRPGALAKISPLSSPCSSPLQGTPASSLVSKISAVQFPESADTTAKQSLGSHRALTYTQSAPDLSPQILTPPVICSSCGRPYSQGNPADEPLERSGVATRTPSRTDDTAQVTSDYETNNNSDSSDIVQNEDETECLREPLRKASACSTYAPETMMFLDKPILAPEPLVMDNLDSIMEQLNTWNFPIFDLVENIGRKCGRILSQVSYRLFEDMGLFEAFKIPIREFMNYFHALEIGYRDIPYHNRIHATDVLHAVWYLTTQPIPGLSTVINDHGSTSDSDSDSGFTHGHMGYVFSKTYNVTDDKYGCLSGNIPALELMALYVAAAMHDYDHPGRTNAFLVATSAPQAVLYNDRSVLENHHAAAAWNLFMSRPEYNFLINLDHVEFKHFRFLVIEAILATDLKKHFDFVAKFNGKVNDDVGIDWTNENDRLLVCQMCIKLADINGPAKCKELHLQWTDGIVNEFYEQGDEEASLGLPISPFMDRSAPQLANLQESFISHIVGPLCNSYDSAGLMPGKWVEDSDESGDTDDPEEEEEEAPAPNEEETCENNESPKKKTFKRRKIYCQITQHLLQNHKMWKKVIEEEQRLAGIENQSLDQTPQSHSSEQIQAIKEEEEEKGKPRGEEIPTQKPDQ

With `COc1ccc([C@H](Cc2ccncc2)c2ccccc2)cc1OC1CCCC1` [CDP 840] the IC50 ([1]; n = 6) was 92 nM.

In the case of `COc1cc2c(cc1OC)-c1c/c(=N\c3c(C)cc(C)cc3C)n(CCNC(N)=O)c(=O)n1CC2` [Example 1, 9,10-Dimethoxy-2-(2,4,6-trimethylphenylimino)3-(N-carbamoyl-2-aminoethyl)-3,4,6,7-tetrahydro-2H-pyrimido[6,1-a]isoquinolin-4-one], the IC50 (PDE4 (human neutrophil)) is reported as 1480 nM, the “effect on contractile responses (electrical-induced contraction of guinea-pig isolated trachea)” value (“effect on contractile responses” for short) [2] is reported as “inhibit the contractile responses with a long duration of action” and the “recruitment of eosinophils to the lungs following antigen challenge” value (“recruitment of eosinophils” for short) ([3]; 10 mg/kg orally 1 hour prior to antigen challenge) is reported as “significantly inhibited”. For the same compound, the “recruitment of eosinophils” value ([3]; dry powder (25%) 1.5 hours prior to antigen challenge, measured 24 hours after challenge) was “significantly inhibited”, the “recruitment of eosinophils” value ([3]; dry powder (25%) 5.5 hours before antigen challenge) was “failed to significantly inhibit” and the IC50 (PDE3 (human platelet)) was 0.43 nM. The “mean arterial blood pressure” value [4] was “dose dependant reduction”, the “proliferation of human mononuclear cells stimulated by PHA” value ([5]; 0.001–100 μM) was “significantly inhibited” and the IC50 ([5]; Homo sapiens, 95% confidence limits in brackets, n=6, read-out: IC50 against proliferation of human mononuclear cells stimulated with PHA) was 460 nM. The IC50 ([1]; n = 6) was 7.5 nM, the “protection against histamine induced bronchospasm” value ([6]; conscious guinea-pigs) was “significant protection” and the mean blood pressure ([6]; guinea-pigs) was “reduced mean blood pressure”.

In the case of `COc1cc2c(cc1OC)-c1c/c(=N\c3c(C)cc(C)cc3C)n(CCN/C(N)=N/[N+](=O)[O-])c(=O)n1CC2` [Example 8, 9,10-Dimethoxy-3-[N-(N′-nitro)-2-guanidinoethyl]-2-(2,4,6-trimethylphenylimino)-3,4,6,7-tetrahydro-2H-pyrimido[6,1-a]isoquinolin-4-one], the “effect on contractile responses” value [2] is reported as “inhibit the contractile responses with a long duration of action”.

With `COc1cc2c(cc1OC)-c1c/c(=N\c3c(C)cc(C)cc3C)n(CCNC(=O)NC3CCCCC3)c(=O)n1CC2` [Example 9] the “effect on contractile responses” value [2] was “inhibit the contractile responses with a long duration of action”.

For `COc1cc2c(cc1OC)-c1c/c(=N\c3ccccc3C)n(CCNC(N)=O)c(=O)n1CC2` [Example 10, 3-(N-Carbamoyl-2-aminoethyl)-9,10-dimethoxy-2-(2-methylphenylimino)-3,4,6,7-tetrahydro-2H-pyrimido[6,1-a]isoquinolin-4-one], the “effect on contractile responses” value [2] was “inhibit the contractile responses with a long duration of action”.

For `COc1cc2c(cc1OC)-c1c/c(=N\c3c(C(C)C)cccc3C(C)C)n(CCNC(N)=O)c(=O)n1CC2` [Example 11], the “effect on contractile responses” value [2] was “inhibit the contractile responses with a long duration of action”.

In the case of `CN/C(=N\C#N)NCCn1c(=O)n2c(c/c1=N\c1c(C)cc(C)cc1C)-c1cc(OC)c(OC)cc1CC2` [Example 13, 3-[N-(N′-Cyano-N″-methyl)-2-guanidinoethyl]-9,10-dimethoxy-2-(2,4,6-trimethyl-phenylimino)-3,4,6,7-tetrahydro-2H-pyrimido[6,1-a]isoquinolin-4-one], the “effect on contractile responses” value [2] is reported as “inhibit the contractile responses with a long duration of action”.

With `CN/C(=N\c1ccc(C2=NNC(=O)CC2C)cc1)NC#N` (stereo not shown) [Siguazodan] the IC50 [1] was over 100000 nM.
